Measured values from patent US12171874B2 (OrphAI Therapeutics Inc., priority 2013, dated 2024).
“Also recorded” adds a separate entry of the source.

Columns and labels:
renal angiomyolipomas = details: oral, up to 2 years, 16 patients; cited from earlier work
[1] = Determination of rapamycin in lung and blood following oropharyngeal aspiration (OPA) and oral gavage (LC-MS/MS); format: in vivo, male C57BL/6 mice; details: 1 mg/kg; for Blood concentration of rapamycin: OPA, 72 h post-dose
Experimental: Source (for oral gavage): Rapamune Oral® (Pfizer) for oral administration, Lot No.: MWGT, Expiration: July 2016.
Animals: Male C57BL/6 mice, approximately 8 weeks of age, from Charles River Laboratories, Inc, Raleigh, NC. Animals were fed Certified Purina Rodent Chow #5002 and were furnished tap water ad libitum. The analysis of each feed batch for nutrient levels and possible contaminants was performed by the supplier, examined by the Study Director, and maintained in the study records. […] Mice were housed (one per cage) in polycarbonate cages with stainless steel bar lids accommodating a water bottle. Cage sizes are approximately 11.5″×7.5″×5″ high (70 sq. in. floor space) for mice. Contact bedding was Sani-Chips hardwood chips (P. J. Murphy Forest Products Co.; Montville, NJ). Mice were quarantined for a period of 5 days before use on a study. A veterinarian or qualified designee examined the animals prior to their release from quarantine. Temperature and relative humidity in RTI animal rooms were continuously monitored, controlled, and recorded using an automated system (Siebe/Barber-Colman Network 8000 System with Revision 4.4.1 for Signal® software [Siebe Environmental Controls (SEC)/Barber-Colman Company; Loves Park, IL]). The target environmental ranges were 64-79° F. (18° C.-26° C.) for temperature and 30-70% relative humidity, with a 12-h light cycle per day. At the end of the in-life phase, the mice were euthanized by overexposure to carbon dioxide. […]
Dosing: Each animal was weighed prior to dosing to determine the amount of dose to be administered. […] The dose administered to each animal was determined from the weight of the full syringe minus that of the empty syringe. The dosing time was recorded. […]
The concentrations of standards were arranged so that each standard came from an alternate stock standard. A six-point calibration curve, each made in triplicate, was employed for analyte quantitation. […] The concentration range determined was from 1-2000 ng/mL in blood and 2-2000 ng/mL in lung homogenate. […]

[2] = system: phosphorylated S6 protein; details: lung tissue concentration
Text: In the mouse strain used (C57bl/6), the mouse airway and alveolar epithelial cells have constitutively active (phosphorylated, “p”) S6 protein.

[3] = 2012 meta-analysis; cited from earlier work

Structure (SMILES)	Renal angiomyolipoma response (renal angiomyolipomas)	Blood concentration of rapamycin ([1]; group)	Blood concentration of rapamycin ([1]; individual animal)	Lung concentration of rapamycin ([1]; gavage (Rapamune Oral), 1 h post-dose, individual animal)	Drug in the lung that substantially abrogates mTOR signaling as measured by pS6 [2]	Cancer patients that may experience mild grade (pulmonary) toxicity [3]
CO[C@H]1C[C@@H]2CC[C@@H](C)[C@@](O)(O2)C(=O)C(=O)N2CCCC[C@H]2C(=O)O[C@H]([C@H](C)C[C@@H]2CC[C@@H](O)[C@H](OC)C2)CC(=O)[C@H](C)/C=C(\C)[C@@H](O)[C@@H](OC)C(=O)[C@H](C)C[C@H](C)/C=C/C=C/C=C/1C [Rapamycin, (3S,6R,7E,9R,10R,12R,14S,15E,17E,19E,21S,23S,26R,27R,34aS)-9,10,12,13,-14,21,22,23,24,25,26,27,32,33,34,34a-hexadecahydro-9,27-dihydroxy-3-[(1R)-2-[(1S,3R,4R)-4-hydroxy-3-methoxycyclohexyl]-1-methylethyl]-10,21-dimethox-y-6,8,12,14,20,26-hexamethyl-23,27-epoxy-3H-pyrido[2,1-c][1,4]oxaazacyclohentriacontine-1,5,11,28,29(4H,6H,31H)-pentone]	sustained regression	below the limit of quantitation; also recorded: undetectable	<ELOQ	<LOQ	about 70 ng/g	–
CO[C@H]1C[C@@H]2CC[C@@H](C)[C@@](O)(O2)C(=O)C(=O)N2CCCC[C@H]2C(=O)O[C@H]([C@H](C)C[C@@H]2CC[C@@H](OCCO)[C@H](OC)C2)CC(=O)[C@H](C)/C=C(\C)[C@@H](O)[C@@H](OC)C(=O)[C@H](C)C[C@H](C)/C=C/C=C/C=C/1C [everolimus]	–	–	–	–	–	10%
CO[C@H]1C[C@@H]2CC[C@@H](C)[C@@](O)(O2)C(=O)C(=O)N2CCCC[C@H]2C(=O)O[C@H]([C@H](C)C[C@@H]2CC[C@@H](OC(=O)C(C)(CO)CO)[C@H](OC)C2)CC(=O)[C@H](C)/C=C(\C)[C@@H](O)[C@@H](OC)C(=O)[C@H](C)C[C@H](C)/C=C/C=C/C=C/1C [temsirolimus]	–	–	–	–	–	10%
